“And” between values parts separate entries of the source, which are not always exact repeats. Identical values can stand only once.
Tests used:
[1] = Pharmacokinetic properties in mice; assay type: in vivo, ICR mice
[2] = Drug concentration in mice brain; assay type: in vivo, ICR mice; conditions: FIG. 1
Procedure: Blood samples were collected from the fundus vein of mice before and at 5, 15, 30, 60, 90, 120, 240, 480 and 1440 minutes of administration, respectively.
2-3 time points were taken for each mouse. The mice were sacrificed at 5, 15, 30, 60 and 1440 minutes after the administration (3 mice per time point), and the brains were taken, rinsed with saline, dried on filter paper and weighed.
Brain tissues were weighed, homogenized in saline (1:4, w/v). 50 μL of homogenized samples were taken, added with 300 μL of acetonitrile containing internal standard (propranolol, 25 ng/mL) to precipitate protein. After vortexing for 10 minutes and centrifuging at 6000 g for 10 minutes, 80 μL of supernatant was taken and placed in a 96-well plate for determination of drug concentration in tissue by UPLC/MS-MS, as shown in Table 2.

TNF-α = assay: Lipopolysaccharide (LPS)-induced inflammation model in mice, TNF-α in serum by ELISA; assay type: in vivo, C57BL/6J mice
Procedure: Male SPF-grade C57BL/6J mice, 6-8 weeks old, provided by Shanghai Ling Chang Biotechnology Co., Ltd. Animals were housed in clean-grade plastic cages (light and dark cycle 12/12 hours, temperature 22±2° C., humidity 50±10%, pellet feed, free drinking water).
1. Mice were weighed and administered according to an administration volume of 10 mL/kg, and oral administration by gavage was given for the first time. Each mouse was administrated at an interval of 3 minutes.
2. One hour after the first administration, LPS 5 mpk was administered intraperitoneally at an administration volume of 10 mL/kg.
3. 4 hours after the first administration, a second oral administration by gavage was given according to the administration volume of 10 mL/kg.
4. 6 hours after LPS intraperitoneal injection, mice were sacrificed, serum and cerebral cortex and hippocampus were sampled. After weighing the wet weight and they were put into liquid nitrogen for quick-freezing and storage.

BV-2 cells = assay: Inhibition of inflammation in LPS-stimulated BV-2 cells (ELISA of inflammatory factors); assay type: cell-based; conditions: Mus musculus, 100 ng/mL LPS 4 hours
How it was run: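 BV-2 cells (passage 8) pre-treated 1 h with compound (4-fold dilutions from 10,000 nM, 0.1% DMSO), then stimulated with 100 ng/mL LPS plus compound for 4 h at 37 °C. Supernatant IL-10, TNFα etc. measured by ELISA (OD450); % inhibition vs high/low controls, IC50 by curve fit.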

[3] = male, ICR, mouse, plasma, po 10 mg/kg

clearance rate as fraction of that of the positive compound [1]: 4/11
absorption compared with the positive compound VX-745 at the same dose ([1]; 10 mg/kg): significantly higher
AUC relative to that of the positive compound ([1]; 10 mg/kg, 5-1440 minutes): 4.8 times
Thalf (iv) ([1]; iv 3 mg/kg): 2.5 h
clearance ([1]; male, ICR, mouse, plasma, iv 3 mg/kg): 6.67 mL/min/kg
Vd ([1]; male, ICR, mouse, plasma, iv 3 mg/kg, read-out: Vss (iv)): 1.2 L/kg
Cmax [1, 3]: 3000 ng/mL
MRT [1, 3]: 4.4 h
Tmax [1, 3]: 1.5 h
BA ([1]; po 10 mg/kg vs iv 3 mg/kg): 36.8%
AUClast (po) ([1]; po 10 mg/kg, 5-1440 minutes): 8944 (h)*(ng/mL)
concentration in mouse brain relative to the positive compound ([2]; 1 h time point): more than one time
drug concentration in mice brain compared with the positive compound ([2]; different time points): significantly higher
IC50 (BV-2 cells; read-out: BV-2 Rf IC50): 6.47 nM
Structure (SMILES): O=c1ncn2nc(Oc3ccc(F)cc3F)ccc2c1-c1c(Cl)cccc1Cl [Compound I-4, 5-(2,6-dichlorophenyl)-2-(2,4-difluorophenoxy)-6H-pyrimido[1,6-b]pyridazin-6-one]
anti-inflammatory effect compared with the VX-745_8 mpk group (TNF-α; 8 mpk): better anti-inflammatory effect
levels of TNF-α compared with the mouse inflammation model group (G2) (TNF-α; 8 mpk, P<0.01): significantly reduced
TNF-α conc. (TNF-α; serum, individual animals, 8 mg/kg po bid interval 4 h, 6 hours after LPS 5 mpk ip): 11.9 pg/mL and 127.8 pg/mL and -39.4 pg/mL and 107.7 pg/mL and 92.4 pg/mL and 17.4 pg/mL and 97.1 pg/mL and -37.7 pg/mL and 86.6 pg/mL and 58.6 pg/mL and 89.4 pg/mL and 116.9 pg/mL
Emax (BV-2 cells; read-out: BV-2 Max Inh. (%)): 100%

Reference: US20220048915A1 (SHANGHAI PHARMACEUTICALS HOLDING CO., LTD., priority 2018, published 2022)
